We go through 1 compound from ChEMBL document CHEMBL1147072, “Synthesis and evaluation of transthyretin amyloidosis inhibitors containing carborane pharmacophores” (Proc Natl Acad Sci U S A, 2007).

Assay [1] has as its target T1, Transthyretin (Homo sapiens, UniProt P02766). Kind of assay: Inhibition of human transthyretin assessed as amyloid fibril formation at pH 4.4 after 72 hrs relative to control. Also noted: scale not given: the % may be the effect or the level left.
Assay [2] deals with T1, Transthyretin. Briefly: Inhibition of human transthyretin fibril formation at pH 4.4 after 72 hrs.

The structures appear in SMILES notation.

For the compound `O=C(O)c1ccccc1Nc1cccc(C(F)(F)F)c1` [FLUFENAMIC ACID], on Transthyretin [1], the Activity came out at 14%. On Transthyretin [2], this compound showed an IC50 of 2900 nM.

For orientation: IC50 means the concentration at which inhibition is half-maximal.
